Experimental data published in patent US6495551B1, “Substituted phenyloxazolidinones and their use as antibiotics” (priority 1997, dated 2002).
Values after ≈ are worked out from the molar mass of the structure shown.

Key:
Assay in all cases: MIC by agar-dilution, standard in vitro test system
Type in all cases: cell-based
Conditions in all cases: IsoSensitest agar, inoculum 10^4 CFU/spot, 37° C. for 24 hours
[1] = tested on: Staphylococcus aureus Novb. Res (Novobiocin resistant)
Protocol: (§1) The following results were obtained on a standard in vitro test system. The activity is described in terms of the minimum inhibitory concentration (MIC) determined by the agar-dilution technique with an inoculum size of 10^4 CFU/spot.
(§2) The organisms were tested on a standard semi-defined susceptability test medium (IsoSensitest agar), using an inoculum of 10^4 CFU/spot and an incubation temperature of 37° C. for 24 hours.
Novb. Res=Novobiocin resistant

[2] = tested on: Coagulase Negative Staphylococcus MR (methicillin resistant)
Protocol: as §1, §2

[3] = tested on: Staphylococcus aureus MRQR (methicillin resistant quinolone resistant)
Protocol: as §1, §2
MRQR=methicillin resistant quinolone resistant

[4] = tested on: Bacillus subtilis
Protocol: as §1, with “CFU/spot. The organisms were tested on a standard semi-defined susceptability test medium (IsoSensitest agar), using an inoculum of 10^4 CFU/spot and an incubation temperature of 37° C. for 24 hours.” for “CFU/spot.”

[5] = tested on: Enterococcus faecalis
Protocol: as §1, with “CFU/spot. The organisms were tested on a standard semi-defined susceptability test medium (IsoSensitest agar), using an inoculum of 10^4 CFU/spot and an incubation temperature of 37° C. for 24 hours.” for “CFU/spot.”

[6] = tested on: Staphylococcus aureus Oxford
Protocol: as §1, with “CFU/spot. The organisms were tested on a standard semi-defined susceptability test medium (IsoSensitest agar), using an inoculum of 10^4 CFU/spot and an incubation temperature of 37° C. for 24 hours.” for “CFU/spot.”

[7] = tested on: Streptococcus pyogenes C203
Protocol: as §1, with “CFU/spot. The organisms were tested on a standard semi-defined susceptability test medium (IsoSensitest agar), using an inoculum of 10^4 CFU/spot and an incubation temperature of 37° C. for 24 hours.” for “CFU/spot.”

[8] = tested on: Coagulase Negative Staphylococcus MS
Protocol: as §1, with “CFU/spot. The organisms were tested on a standard semi-defined susceptability test medium (IsoSensitest agar), using an inoculum of 10^4 CFU/spot and an incubation temperature of 37° C. for 24 hours.” for “CFU/spot.”

MIC [1]: 0.25 µg/mL (≈ 0.562 µM) | MIC [2]: 0.25 µg/mL (≈ 0.562 µM) | MIC [3]: 1 µg/mL (≈ 2.25 µM) | MIC [4]: 0.25 µg/mL (≈ 0.562 µM) | MIC [5]: 0.5 µg/mL (≈ 1.12 µM) | MIC [6]: 0.125 µg/mL (≈ 0.281 µM) | MIC [7]: 0.125 µg/mL (≈ 0.281 µM) | MIC [8]: 0.06 µg/mL (≈ 0.135 µM)
SMILES: CC(=O)NC[C@H]1CN(c2ccc(-n3cnc(C(=O)Nc4nccs4)c3)c(F)c2)C(=O)O1 [Example 43, N-[(5S)-3-(3-Fluoro-4-(4-(thiazol-2-ylaminocarbonyl)imidazol-1-yl)phenyl)-2-oxooxazolidin-5-ylmethyl]acetamide]
